Test results taken from PMC9101188, “Human α-Defensin-6 Neutralizes Clostridioides difficile Toxins TcdA and TcdB by Direct Binding” (International Journal of Molecular Sciences, 2022).

Assays:
Vero cells [1] = format: cell-based, African green monkey
TcdB [2] = settings: SPR, 2400 RUs biotinylated TcdB on streptavidin chip; α-def-6 0.1 to 6 µM; 10 mM HEPES, 150 mM NaCl, 50 µM EDTA, 0.005% Tween 20, pH 7.0; 25 µL/min, 25 °C; 4 min injection
Procedure: (A) 2400 RUs of biotinylated TcdB were immobilized via streptavidin-biotin binding onto a streptavidin sensor chip, and α-def-6 (concentrations as indicated) was applied to the chip for 4 min followed by a dissociation phase with a flow of running buffer. A solution of 6 µM of α-def-6 was injected twice to assess reproducibility, and β-def-1 (6 µM) served as a control. The flow rate was 25 µL/min.
TcdB was biotinylated via EZ-Link^TM Sulfo-NHS-Biotin (Thermo Fisher Scientific, Waltham, MA, USA) according to the manufacturer’s protocol. Briefly, TcdB was incubated with Sulfo-NHS-Biotin for 30 min at room temperature (RT). To remove the excess non-reacted biotin, TcdB was rebuffered with a Zeba^TM Spin Desalting Column (Thermo Fisher Scientific, Waltham, MA, USA). The successful biotinylation was verified via Western blotting and detection with peroxidase-conjugated streptavidin (1:2500, F. Hoffmann-La Roche AG, Basel, Switzerland).
The binding of α-def-6 to biotinylated TcdB was analyzed via surface plasmon resonance spectroscopy (SPR) with a Reichert SPR7500DC SPR spectrometer (Reichert Technologies, Buffalo, NY, USA). All analytes were dialyzed in running buffer (10 mM HEPES, 150 mM NaCl, 50 µM EDTA, 0.005% (v/v) Tween®20, pH 7.0) beforehand. Experiments were performed with a flow rate of 25 µL/min at 25 °C. […]

CaCo-2 monolayer [3] = format: cell-based, human
TcdB [4] = settings: TcdB 50 ng, α-def-6 6 µM, PBS, 0.5 h, 37 °C (n = 3)
Procedure: (C) TcdB (50 ng) was incubated with or without α-def-6 (6 µM) in PBS for 0.5 h at 37 °C. Samples were centrifuged to segregate aggregates and divided into a supernatant (S) and pellet (P) fraction. Fractions were subjected to SDS-PAGE followed by Western blotting. TcdB was detected.
The TcdB stock was centrifuged for 20 min at 14,000 rpm and 4 °C to remove any preformed aggregates. TcdB (50 ng) was incubated in the absence or presence of α-def-6 (6 µM) for 30 min at 37 °C in a final volume of 35 µL PBS. The samples were centrifuged as before to segregate possible aggregates and subsequently separated into a supernatant (30 µL) and pellet fraction (5 µL). The pellet fraction was resuspended with 25 µL PBS to a final volume of 30 µL. Each fraction (30 µL) was then subjected to SDS-PAGE (8% polyacrylamide gel) and Western blotting. TcdB was detected using an anti-TcdB-antibody (1:1000, #ab270452, Abcam, Cambridge, UK) followed by an HRP-conjugated mouse anti-rabbit antibody (1:2500; #sc-2357; Santa Cruz Biotechnology, Dallas, TX, USA).

Rac1 [5] = format: cell-based, African green monkey
CaCo-2 monolayer [6] = system: CaCo-2 monolayer
Rac1 [7] = format: cell-based, African green monkey; remark: listed apart in the source
TcdB glucosyltransferase = test: UDP-Glo glucosyltransferase assay; format: biochemical, C. difficile VPI 10463; settings: TcdB 200 pM, recombinant Rac1 5 µM, UDP-glucose 100 µM, 1 h, 37 °C, pH 7.5, luminescence (n ≥ 3)
Procedure: (§1) The flow rate was 25 µL/min. […] A representative gel is shown (n = 2). […] GAPDH served as the loading control. A representative Western blot is shown.
UDP-Glo™ Glucosyltransferase assay with UDP-Glucose (Promega Corporation, Madison, WI, USA) was performed according to the manufacturer’s protocol. Briefly, TcdB (200 pM) was incubated in glucosylation buffer (50 mM HEPES, 100 mM KCl, 2 mM MgCl2, 1 mM MnCl2, 100 mg/L BSA, pH 7.5) with various concentrations of the respective inhibitors in a final volume of 40 µL. 5 µM recombinant Rac1 was included in the samples as a substrate. […] Castanospermine (10 mM, Santa Cruz Biotechnology, Dallas, TX, USA) served as control for inhibition of glucosyltransferase activity of TcdB. To stop the reaction, three times 10 µL of each sample were transferred to a white half area 96 well microplate (Greiner Bio-One International GmbH, Kremsmünster, Austria) combined with 10 µL of UDP Detection Reagent and mixed at 1000 rpm for 30 s on a plate shaker (Titramax 1000, Heidolph Instruments GmbH & Co. KG, Schwabach, Germany). Luminescence was recorded after 15–60 min via a Tecan infinite M1000 Pro plate reader (Tecan, Männdorf, Switzerland) with an integration time of 750 ms.

Vero cells [8] = format: cell-based, African green monkey; remark: listed apart in the source
bacteria = settings: cited from earlier work
Text: The benchmark for treating CDIs is still the use of some specific antibiotics such as vancomycin, metronidazole or fidaxomicin [20]. More and more attention is also being paid to the direct inactivation of the secreted toxins, for example by using anti-toxin-antibodies such as bezlotoxumab or actoxumab. Following the approach of directly inactivating the secreted toxins and based on previous findings of our group and of others, we investigated the effects of human endogenous antimicrobial peptides on the C. difficile toxins TcdA and TcdB. […] The administration of α-def-6 protected human cells from TcdB, but also from the closely related TcdA and the clinically more relevant combination of both TcdA and TcdB. Exemplarily, the protective effect could be confirmed for TcdB in vivo using the zebrafish embryo ...

TcdB autoprotease domain = test: In vitro autoprocessing of TcdB (InsP6-induced autoprotease activity); format: biochemical, C. difficile VPI 10463; settings: TcdB 2 µg, InsP6 1 mM; α-def-6 3 µM, 9 µM; 1 h, 37 °C, pH 7.4; SDS-PAGE, Coomassie (n = 2)
Procedure: as §1
The effects of α-def-6 on TcdB autoprocessing by its intrinsic cysteine protease activity were analyzed. […] Inositol hexakisphosphate (1 mM, Santa Cruz Biotechnology, Dallas, TX, USA) was added to the samples to induce autoprocessing. N-Ethylmaleimide (1 mM, Sigma Aldrich by Merck KGaA, Darmstadt, Germany) served as positive control for the inhibition of TcdB-autoprocessing. The reactions were stopped by addition of a Laemmli buffer and heat denaturation (95 °C). For the analysis, the samples were electrophoresed on 8% SDS polyacrylamide gels, and proteins were visualized by Coomassie staining.

Rac1 [9] = format: cell-based, African green monkey; remark: listed apart in the source

For `CC[C@H](C)[C@@H]1NC(=O)CNC(=O)[C@H](CCSC)NC(=O)[C@H](C(C)C)NC(=O)[C@H]([C@@H](C)O)NC(=O)[C@@H]2CSSC[C@@H]3NC(=O)[C@H](Cc4c[nH]cn4)NC(=O)[C@@H](NC(=O)[C@@H](NC(=O)[C@H](Cc4ccccc4)NC(=O)[C@H](C)N)[C@@H](C)O)CSSC[C@@H](C(=O)N[C@@H](CC(C)C)C(=O)O)NC(=O)[C@H](CSSC[C@H](NC(=O)[C@H](CO)NC(=O)[C@H](CCCNC(=N)N)NC(=O)[C@H](CCCNC(=N)N)NC3=O)C(=O)N[C@@H](Cc3ccc(O)cc3)C(=O)N[C@@H](CO)C(=O)N[C@@H]([C@@H](C)O)C(=O)N[C@@H](CCC(=O)O)C(=O)N[C@@H](Cc3ccc(O)cc3)C(=O)N[C@@H](CO)C(=O)N[C@@H](Cc3ccc(O)cc3)C(=O)NCC(=O)N[C@@H]([C@@H](C)O)C(=O)N2)NC(=O)[C@H](Cc2ccccc2)NC(=O)[C@H](CCCNC(=N)N)NC(=O)[C@H](Cc2c[nH]cn2)NC(=O)[C@H](CC(N)=O)NC1=O` [α-def-6], the “inhibition of toxin effects on cells, TcdA + TcdB” value (Vero cells [1]) was “clear inhibition”, the “protection of cells against TcdA + TcdB” value (Vero cells [1]) was “clear protection” and the “interaction with immobilized TcdB” value (TcdB [2]) was “direct, concentration-dependent interaction”. For the same compound, the “TEER, TcdA” value (CaCo-2 monolayer [3]) was “clear delay in TEER-reduction”, the “shift of TcdB to pellet fraction” value (TcdB [4]) was “shift of TcdB from the supernatant to the pellet fraction” and the “glucosylation of Rac1 by TcdB” value (Rac1 [5]) was “clearly less Rac1 was glucosylated”. The “TEER, TcdB” value (CaCo-2 monolayer [6]) was “clear delay in TEER-reduction”, the “cytotoxic effects on the monolayer, TcdB” value (CaCo-2 monolayer [6]) was “time-dependent inhibition of the cytotoxic effects on the monolayer” and the “glucosylation of Rac1 by TcdA” value (Rac1 [7]) was “clearly less Rac1 was glucosylated”. The “inhibition of glucosyltransferase activity of TcdB” value (TcdB glucosyltransferase) was “not able to inhibit glucosyltransferase activity”, the “inhibition of toxin effects on cells, TcdA” value (Vero cells [8]) was “clear inhibition” and the “protection of cells against TcdA” value (Vero cells [8]) was “clear protection”. The microbiocidal activity (bacteria; ref [27]) was “negligible microbiocidal activity”, the “biocidal / antimicrobial activity” value (bacteria; ref [46]) was “surprisingly low antimicrobial activity” and the “release of the glucosyltransferase domain by the autoprotease domain (effect of substance)” value (TcdB autoprotease domain) was “not affected”. The “Rac1 modification by TcdA + TcdB” value (Rac1 [9]) was “diminished the toxin-mediated Rac1-modification” and the “amount of rounded CaCo-2 cells, TcdA + TcdB” value (CaCo-2 cells) was “reduced amount of rounded CaCo-2 cells was visible for at least 6 h”.
